# From patent US20260007133A1, “HERBICIDAL COMPOSITION COMPRISING AZINE COMPOUNDS” (BASF SE, priority 2022, published 2026)
# Read-outs that look alike come from different tables or passages of the source.
# What was measured:
# Assay type in all cases: in vivo
# Abutilon theophrasti = assay: Greenhouse pre-emergence (PRE) herbicidal test on ABUTH; details: Abutilon theophrasti, pre-emergence
# In short: (§1)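 Seeds were sown per species in loamy sand with ~3.0% humus, treated pre-emergence and kept at 10-25° C or 20-35° C depending on species. Damage was scored at 20 days after treatment on a 0-100 scale (100 = no emergence or complete destruction of above-ground parts, 0 = no damage).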
# Alopecurus myosuroides = assay: Greenhouse pre-emergence (PRE) herbicidal test on ALOMY
# In short: as §1
# Amaranthus retroflexus = assay: Greenhouse pre-emergence (PRE) herbicidal test on AMARE; details: Amaranthus retroflexus, pre-emergence
# In short: as §1
# Avena fatua = assay: Greenhouse pre-emergence (PRE) herbicidal test on AVEFA; details: use rate 8 gai/ha
# In short: (§2)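 Seeds sown in loamy sand (~3.0% humus); compounds in water applied by fine nozzles directly after sowing, then pots irrigated and hooded until rooting. Plants held at 10-25° C or 20-35° C by species; damage scored 0-100 (100 = no emergence/complete destruction) 20 days after treatment.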
# Brachiaria decumbens = assay: Greenhouse pre-emergence (PRE) herbicidal test on BRADC; details: Urochloa decumbens, use rate 8 gai/ha
# In short: as §2
# Commelina benghalensis = assay: Greenhouse pre-emergence (PRE) herbicidal test on COMBE
# In short: as §1
# Echinochloa crus-galli = assay: Greenhouse pre-emergence (PRE) herbicidal test on ECHCG; details: Echinochloa crus-galli, pre-emergence, PRE
structure (smiles),measurement,setting,value
COc1c(Br)cc(F)c(F)c1Nc1nc(N)nc(C(C)(C)F)n1 [Compound I-2],pest or weed control at 2 g/ha,"Abutilon theophrasti; 432 h, PRE, ABUTH, I-2 solo 2 gai/ha, 18 DAT",30%
same,pest or weed control at 8 g/ha,"Abutilon theophrasti; 432 h, PRE, ABUTH, I-2 solo 8 gai/ha, 18 DAT",50%
same,inhibition at 8 g/ha,"Abutilon theophrasti; 480 h, ABUTH PRE, 20 DAT, use rate 8 gai/ha, read-out: % activity",65%
same,pest or weed control at 2 g/ha,"Abutilon theophrasti; 480 h, PRE, 2 gai/ha, 20 DAT",10%
same,pest or weed control at 8 g/ha,"Abutilon theophrasti; 480 h, PRE, 8 gai/ha, 20 DAT",65%
same,inhibition at 2 g/ha,"Abutilon theophrasti; 480 h, PRE, ABUTH, 2 gai/ha, 20 DAT, read-out: % activity solo application",10%
same,inhibition at 8 g/ha,"Abutilon theophrasti; 480 h, PRE, ABUTH, 8 gai/ha, 20 DAT, read-out: % activity solo application",55%
same,inhibition at 8 g/ha,"Abutilon theophrasti; 480 h, PRE, ABUTH, use rate 8 gai/ha, 20 DAT, read-out: solo application % activity",55%
same,inhibition at 2 g/ha,"Abutilon theophrasti; ABUTH PRE, use rate 2 gai/ha, read-out: % activity",20%
same,inhibition at 2 g/ha,"Abutilon theophrasti; PRE, ABUTH, use rate 2 gai/ha, read-out: % activity",20%
same,% activity,"Alopecurus myosuroides; ALOMY PRE, use rate 8 gai/ha",85%
same,pest or weed control at 2 g/ha,"Alopecurus myosuroides; Alopecurus myosuroides, pre-emergence, 432 h, PRE, ALOMY, I-2 solo 2 gai/ha, 18 DAT, read-out: % activity",5%
same,pest or weed control at 8 g/ha,"Alopecurus myosuroides; Alopecurus myosuroides, pre-emergence, 432 h, PRE, ALOMY, I-2 solo 8 gai/ha, 18 DAT",75%
same,pest or weed control at 8 g/ha,"Alopecurus myosuroides; Alopecurus myosuroides, pre-emergence, 480 h, PRE, 8 gai/ha, 20 DAT",5%
same,inhibition at 2 g/ha,"Alopecurus myosuroides; Alopecurus myosuroides, pre-emergence, 480 h, PRE, ALOMY, 2 gai/ha, 20 DAT, read-out: % activity solo application",20%
same,inhibition at 8 g/ha,"Alopecurus myosuroides; Alopecurus myosuroides, pre-emergence, 480 h, PRE, ALOMY, 8 gai/ha, 20 DAT, read-out: % activity solo application",75%
same,inhibition at 8 g/ha,"Alopecurus myosuroides; Alopecurus myosuroides, pre-emergence, 480 h, PRE, ALOMY, use rate 8 gai/ha, 20 DAT, read-out: solo application % activity",75%
same,inhibition at 16 g/ha,"Alopecurus myosuroides; Alopecurus myosuroides, pre-emergence, 480 h, PRE, ALOMY, use rate 16 gai/ha, 20 DAT",95%
same,inhibition at 2 g/ha,"Alopecurus myosuroides; Alopecurus myosuroides, pre-emergence, 480 h, PRE, use rate 2 gai/ha, 20 DAT, read-out: % activity",40%
same,inhibition at 8 g/ha,"Alopecurus myosuroides; Alopecurus myosuroides, pre-emergence, ALOMY PRE, use rate 8 gai/ha, read-out: % activity",70%
same,inhibition at 2 g/ha,"Alopecurus myosuroides; Alopecurus myosuroides, pre-emergence, PRE, ALOMY, use rate 2 gai/ha, read-out: % activity",20%
same,pest or weed control at 2 g/ha,"Amaranthus retroflexus; 432 h, PRE, AMARE, I-2 solo 2 gai/ha, 18 DAT",80%
same,inhibition at 2 g/ha,"Amaranthus retroflexus; 480 h, AMARE PRE, 20 DAT, use rate 2 gai/ha, read-out: % activity",70%
same,pest or weed control at 2 g/ha,"Amaranthus retroflexus; 480 h, PRE, 2 gai/ha, 20 DAT",70%
same,inhibition at 2 g/ha,"Amaranthus retroflexus; 480 h, PRE, AMARE, 2 gai/ha, 20 DAT, read-out: % activity solo application",70%
same,inhibition at 2 g/ha,"Amaranthus retroflexus; 480 h, PRE, AMARE, use rate 2 gai/ha, 20 DAT, read-out: solo application % activity",70%
same,inhibition at 8 g/ha,Avena fatua,50%
same,inhibition at 8 g/ha,Brachiaria decumbens; BRADC PRE,80%
same,inhibition at 8 g/ha,"Brachiaria decumbens; PRE, BRADC",70%
same,pest or weed control at 8 g/ha,"Commelina benghalensis; Commelina benghalensis, pre-emergence, 432 h, PRE, COMBE, I-2 solo 8 gai/ha, 18 DAT",25%
same,inhibition at 2 g/ha,"Commelina benghalensis; Commelina benghalensis, pre-emergence, 480 h, COMBE PRE, 20 DAT, use rate 2 gai/ha, read-out: % activity",20%
same,inhibition at 8 g/ha,"Commelina benghalensis; Commelina benghalensis, pre-emergence, 480 h, COMBE PRE, 20 DAT, use rate 8 gai/ha, read-out: % activity",60%
same,inhibition at 2 g/ha,"Commelina benghalensis; Commelina benghalensis, pre-emergence, 480 h, PRE, COMBE, 2 gai/ha, 20 DAT, read-out: % activity solo application",10%
same,inhibition at 8 g/ha,"Commelina benghalensis; Commelina benghalensis, pre-emergence, 480 h, PRE, COMBE, 8 gai/ha, 20 DAT, read-out: % activity solo application",45%
same,inhibition at 8 g/ha,"Commelina benghalensis; Commelina benghalensis, pre-emergence, 480 h, PRE, COMBE, use rate 8 gai/ha, 20 DAT, read-out: solo application % activity",45%
same,inhibition at 8 g/ha,"Commelina benghalensis; Commelina benghalensis, pre-emergence, COMBE PRE, use rate 8 gai/ha, read-out: % activity",25%
same,inhibition at 4 g/ha,"Commelina benghalensis; Commelina benghalensis, pre-emergence, PRE, COMBE, use rate 4 gai/ha",10%
same,% activity,"Commelina benghalensis; PRE, COMBE, use rate 4 gai/ha",15%
same,inhibition at 4 g/ha,"Echinochloa crus-galli; 240 h, use rate 4 gai/ha, 10 DAT",20%
same,inhibition at 8 g/ha,"Echinochloa crus-galli; 240 h, use rate 8 gai/ha, 10 DAT, read-out: % activity",20%
same,inhibition at 16 g/ha,"Echinochloa crus-galli; 240 h, use rate 16 gai/ha, 10 DAT",25%
same,pest or weed control at 2 g/ha,"Echinochloa crus-galli; 432 h, ECHCG, I-2 solo 2 gai/ha, 18 DAT",10%
same,pest or weed control at 8 g/ha,"Echinochloa crus-galli; 432 h, ECHCG, I-2 solo 8 gai/ha, 18 DAT",25%
same,inhibition at 2 g/ha,"Echinochloa crus-galli; 480 h, ECHCG, 2 gai/ha, 20 DAT, read-out: % activity solo application",0%
same,inhibition at 8 g/ha,"Echinochloa crus-galli; 480 h, ECHCG, 8 gai/ha, 20 DAT, read-out: % activity solo application",90%
same,inhibition at 2 g/ha,"Echinochloa crus-galli; 480 h, ECHCG, use rate 2 gai/ha, 20 DAT, read-out: solo application % activity",0%
same,inhibition at 8 g/ha,"Echinochloa crus-galli; 480 h, ECHCG, use rate 8 gai/ha, 20 DAT, read-out: solo application % activity",90%
